# In US20210267948A1, “TREATMENT OF CANCER” (CITY OF HOPE, priority 2017, published 2021):
# Tests used:
# tumor xenografts = assay: Pilot tumor xenograft study; assay type: in vivo; conditions: daily oral administration, IL2-rg(KO)/NOD-Scid mice
# From the text: Toxicity studies in rats and dogs at doses equivalent to 10× that dose have not shown toxicity at 10 or 21 days.
# PARP1 = PARP1 protein expression by Western blot; assay type: cell-based, human
# Method: FIGS. 3A-3B. […] (FIG. 3A): the effect of COH29 on PARP1 activity in isogenic pairs of breast (HCC1937) and ovarian (UWB1.289) cancer cell lines expressing mutant or wt BRCA1 (wt=+BRCA1 in each case) was assessed in duplicate using procedures described in Materials & Methods; FIG. 3B: the effect of COH29 on PARP1 protein expression in the isogenic HCC1937/HCC1937+BRCA1 cell lines was assessed by Western blot analysis using anti-human PARP1 antibody as the primary antibody. Loading control is β-actin.
# For subcellular fractionation, cells were trypsinized and washed with cold PBS solution twice. […] Following centrifugation at 1,000 g for 5 min, the supernatant was collected (i.e., cytoplasmic fraction) and pellets were washed with the same buffer twice. The washed samples were extracted for 40 min on ice with fractionation buffer containing 0.5% NP-40 for nuclear fraction. All the samples were sonicated and clarified by centrifugation at 16,000 g for 15 min. Protein concentrations of all fractions were determined with Bio-Rad Protein Assay (Bio-Rad Laboratories, Hercules, Calif.). Immunoblotting was performed as described previously (21,22). Briefly, equal amounts of boiled protein samples were subjected to SDS-polyacrylamide gel electrophoresis (PAGE) and transferred onto nitrocellulose membranes (Bio-Rad Laboratories). Membranes were blocked for 1 hour in 3% BSA in Tris buffered saline containing 0.05% Tween 20 (TBST) and incubated for 1 hour with primary antibody (1:500 or 1:1000) diluted in TBST containing 1% BSA. After two washes with TBST, membranes were incubated for 1 hour with horseradish peroxidase-conjugated secondary Abs (1:3000 dilution) at room temperature. The immunoblots were visualized on film with the West-Q chemi-luminescence kit (GenDEPOT, Barker, Tex.).
# [1] = Exposure in animal toxicology studies; conditions: in vivo, read-out: AUC, maximum level observed
# Method: Maximum dose level is capped at 2400 mg/day (Dose Level 8) corresponding to closest highest level achieved in animal studies. […] Intrapatient dose escalation is permissible if a dose level has been cleared.
# HCC1937+BRCA1 = assay: Cytotoxicity assay, HCC1937+BRCA1; assay type: cell-based, human; conditions: 10 μM, 72 h
# Method: All cell lines were acquired from the American Type Culture Collection (Manassas, Va., USA). Cells were maintained in RPMI 1640 medium (Mediatech) with 10% fetal bovine serum, 2 mM glutamine, and 100 U of penicillin and 100 μg of streptomycin per ml of medium (Sigma) at 37° C. in 5% CO2. To isolate HCC1937+BRCA1 cells, parental HCC1937 cells were transfected with pcDNA3.1 plasmid expressing full-length BRCA1 cDNA. Stable transfectant clones were selected and used for drug sensitivity assays. For stable transfection, cells at 30-40% confluence were incubated overnight with […] of plasmid DNA, using FUGENE® 6 transfectin reagent (Roche Molecular Biochemical, Monza, Italy) according to the manufacturer's instructions. Cells were then selected in puromycin (1 μg/ml) (Invitrogen Life Technologies, La Jolla, Calif., USA). After 20 to 30 days, viable puromycin-resistant colonies from HCC1937 transfections were expanded and screened. The clones that stably expressed puromycin and retained growth potential were assayed for BRCA1 expression by Western blot analysis. The restoration of BRCA1 expression in the puromycin-resistant cDNA/transfectant cells was evaluated by Western blot analysis.
# The MTT cytotoxicity assay was performed by incubating with MTT and monitoring the MTT formazan formed by viable cells with a microplate reader at a wavelength of 560 nm; the survival ratio was determined using the formula: (Atest−Ablank)/(Acontrol−Ablank)×100%. The cytotoxicity was determined in 96-well plates using the semiautomatic fluorescence-based Digital Imaging Microscopy System (DIMSCAN). DIMSCAN uses digital imaging microscopy to quantify viable cells, which selectively accumulate FDA (fluorescein diacetate; Alfa Aesar, Ward Hill, Mass.). DIMSCAN is capable of measuring cytotoxicity over a 4 log dynamic range by quantifying total fluorescence per well (which is proportional to the number of viable cells) after elimination of the background fluorescence by digital thresholding and eosin Y (Mallinckrodt Baker, Center Valley, Pa.) quenching. […]
smiles,measurement,setting,value
"O=C(Nc1nc(-c2ccc(O)c(O)c2)c(-c2ccccc2)s1)c1ccc(O)c(O)c1 [COH29, N-(4-(3,4-dihydroxyphenyl)-5-phenylthiazol-2-yl)-3,4-dihydroxybenzamide]",lowest dose observed to inhibit growth of tumor xenografts,tumor xenografts,50 mg/kg
same,PARP1 protein level,"PARP1; HCC1937 BRCA1-defective, 24 h",attenuated PARP1 protein
same,PARP1 protein level,"PARP1; HCC1937 cells irrespective of BRCA1 status, 4 h",Little reduction
same,AUC,[1],5000 ng·h/mL
same,cells survived,HCC1937+BRCA1; HCC1937+BRCA1 transfected with BRCA1 siRNA,53%
same,cells survived,HCC1937+BRCA1; HCC1937+BRCA1 transfected with control siRNA,72%
